Source: patent US20260001874A1 (priority 2022, published 2026)

What was measured:
[1] = test system: Shiga toxin Stx-1; format: cell-based, E. coli; details: read-out: EC50 in vitro Stx1
[2] = test system: Shiga toxin Stx-2; format: cell-based, E. coli; details: read-out: EC50 in vitro Stx2
[3] = test system: VacV-ANCHOR; assay: microbe, parasite or virus in culture; format: cell-based, cowpox virus; details: Orthopoxvirus vaccinia, HeLa, read-out: EC50 in vitro VACV
[4] = test system: myxomatosis-derived virus MYXV-T1-ANCHOR; assay: organism not typed; format: cell-based; details: RK-13, read-out: EC50 in vitro MYXV
[5] = mouse, in vivo
[6] = in vitro; details: human
[7] = in vitro; details: rabbit
[8] = Incubation with hepatic mouse microsomes, LC-MS-MS; details: 5 μM, 45 minutes, 37° C.
[9] = Pharmacokinetics in Lipiodol/castor oil (formulation B) or DMSO/Lipiodol/castor oil (formulation C), oral or subcutaneous; details: 33 mg/kg oral or subcutaneous, Lipiodol/castor oil 30%/70%
[10] = test system: RK13 cells; details: rabbit
[11] = test system: HeLa cells; details: human

Row | SMILES | EC50 [1] [nM] | EC50 [2] [nM] | EC50 [3] [nM] | EC50 [4] [nM] | CC50 [6] [nM] | CC50 [7] [nM] | also measured
1 | Cc1nc(-c2ccc(C3N(C)c4ccc(F)cc4C(=O)N3c3c(O)cccc3O)s2)cs1 (stereo not shown) [Compound 1, 3-(2,6-dihydroxyphenyl)-6-fluoro-1-methyl-2-(5-(2-methylthiazol-4-yl)thiophen-2-yl)-2,3-dihydroquinazolin-4(1H)-one] | 16 | 17 | 0.78 | 6 | 57700 | 18900 | concentration in brain ([5]; female, BALB/c): 1700 nM; concentration in colon ([5]; female, BALB/c): 800 nM; concentration in kidneys ([5]; female, BALB/c): 400 nM; concentration in liver ([5]; female, BALB/c): 600 nM; concentration in lungs ([5]; female, BALB/c): 500 nM; concentration in plasma ([5]; female, BALB/c): 700 nM; concentration in small intestine ([5]; female, BALB/c): 2100 nM; concentration in brain (metabolite section) ([5]; female, BALB/c, sc, 33 mg/kg): 1500 nM; concentration in colon (metabolite section) ([5]; female, BALB/c, sc, 33 mg/kg): < 200 nM; concentration in kidney (metabolite section) ([5]; female, BALB/c, sc, 33 mg/kg): 500 nM; concentration in liver (metabolite section) ([5]; female, BALB/c, sc, 33 mg/kg): 1000 nM; concentration in lungs (metabolite section) ([5]; female, BALB/c, sc, 33 mg/kg): < 200 nM; metabolism by hepatic microsomes in the presence of NADPH [8]: slowed metabolism relative to the other compounds; pharmacokinetic properties (plasma exposure) compared with the other molecules tested [9]: best pharmacokinetic properties of all of the molecules tested
2 | Cc1nc(-c2ccc(C3N(C)c4ccc(F)cc4C(=O)N3c3ccccc3)s2)cs1 (stereo not shown) [Compound A] | 52 | 60 | 37.8 | 74.5 | > 50000 | – | CC50 [10]: 3350 nM
3 | Cc1nc(-c2ccc(C3N(C)c4ccc(F)cc4C(=O)N3c3ccccc3O)s2)cs1 (stereo not shown) [Compound B] | 25 | 22 | 3.6 | 19 | 39900 | 14000 | –
4 | Cc1nc(-c2ccc(C3N(C)c4ccc(F)cc4C(=O)N3c3cccc(O)c3)s2)cs1 (stereo not shown) [Compound C] | 62 | 71 | 32.2 | 85.8 | 29200 | 3510 | –
5 | Cc1nc(-c2ccc(C3N(C)c4ccc(F)cc4C(=O)N3c3ccc(O)cc3)s2)cs1 (stereo not shown) [Compound D] | 483 | – | 628 | 5800 | – | – | CC50 [11]: 20400 nM; CC50 [10]: 12900 nM
6 | Cc1nc(-c2ccc(C3N(C)c4ccc(F)cc4C(=O)N3c3cccc(O)c3O)s2)cs1 (stereo not shown) [Compound E] | 32 | 35 | 4.8 | 11.5 | 8500 | 1300 | –
7 | Cc1nc(-c2ccc(C3N(C)c4ccc(F)cc4C(=O)N3c3ccc(O)cc3O)s2)cs1 (stereo not shown) [Compound F] | 1500 | – | 27.3 | – | 3600 | – | –
8 | Cc1nc(-c2ccc(C3N(C)c4ccc(F)cc4C(=O)N3c3cc(O)ccc3O)s2)cs1 (stereo not shown) [Compound G] | 642 | – | 19 | 237 | 36300 | 12600 | –
9 | Cc1nc(-c2ccc(C3N(C)c4ccc(F)cc4C(=O)N3c3ccc(O)c(O)c3)s2)cs1 (stereo not shown) [Compound H] | 2500 | – | – | – | – | – | –
10 | Cc1nc(-c2ccc(C3N(C)c4ccc(F)cc4C(=O)N3c3cc(O)cc(O)c3)s2)cs1 (stereo not shown) [Compound I] | > 30000 | – | 7300 | 9750 | 25900 | 20100 | –
11 | Cc1nc(-c2ccc(C3N(C)c4ccc(F)cc4C(=O)N3c3ccccc3N)s2)cs1 (stereo not shown) [Compound J] | 21 | 27 | 1 | 1.44 | > 50000 | – | CC50 [10]: 7460 nM
12 | CN1c2ccc(F)cc2C(=O)N(c2c(O)cccc2O)C1c1ccc(-c2csc(CO)n2)s1 (stereo not shown) [metabolite] | – | – | – | – | – | – | presence in kidney, liver, colon, lungs and brain after treatment with compound 1 ([5]; sc, 33 mg/kg): identified in vivo
